We go through two substances from patent US20150094354A1, “METHOD FOR TREATING CELL PROLIFERATIVE DISORDER BY INHIBITING C1GALT1 EXPRESSION” (National Taiwan University, priority 2013, published 2015).

For one series, the system named is MET. Briefly: VVA lectin pull-down of MET. The format is cell-based, human. On the procedure:
Vicia villosa agglutinin (VVA)- and peanut agglutinin (PNA) lectin-conjugated agarose beads, fluorescein isothiocyanate (FITC)-, and biotinylated VVA were purchased from Vector Laboratories. Recombinant EGF, HGF, IGF-I, and protein deglycosylation kits were purchased from Sigma. Protein deglycosylation is carried out using an Enzymatic Protein Deglycosylation Kit (Sigma). Briefly, cell lysates are treated with neuraminidase or PNGase F at 37° C. for 1 hour. For lectin blotting, […] of cell lysate is separated by an 8% SDS-PAGE, transferred to polyvinylidene difluoride membrane (Millipore), and blotted with biotinylated VVA (1:10,000). For lectin pull-down assay, cell lysates (0.3 mg) are incubated with or without deglycosylation enzymes and then applied to VVA- or PNA-conjugated agarose beads at 4° C. for 16 hours. The pulled down proteins are analyzed by Western blotting.
To investigate whether C1GALT1 can modify O-glycans on MET, VVA binding to MET was analyzed in hepatocellular carcinoma cells with C1GALT1 knockdown or overexpression. […] Cell lysates were treated with (+) or without (−) neuraminidase and then pulled down by VVA agarose beads. The pulled down glycoproteins were immunoblotted (IB) with anti-MET antibody. These findings indicate that C1GALT1 can modify O-glycans on MET in hepatocellular carcinoma cells. […]

The next series relates to C1GALT1. Nature of the series: Knockdown of C1GALT1 expression confirmed by Western blotting / Q-PCR. To be noted: siRNA. The format is cell-based, human. An excerpt: According to an embodiment of the present invention, in the experiment in vitro, two siRNA oligonucleotides against C1GALT1, 5′-[…] GG-3′ (SEQ ID NO: 1) and 5′-[…]-3′ (SEQ ID NO: 2), used as the C1GALT1 inhibition substance and a negative control siRNA of medium GC are synthesized by Invitrogen company.
According to another embodiment of the present invention, in the experiment in vivo, the pLKO/C1GALT1-shRNA plasmid containing the sequence, 5′-CCCAGCCTAATG TTCTTCATA-3′(SEQ ID NO: 13), against C1GALT1 is used as the C1GALT1 inhibition substance. The pLKO/C1GALT1-shRNA plasmid and non-targeting pLKO plasmids (as a negative control) are purchased from National RNAi Core Facility (Academia Sinica, Taipei, Taiwan). The short hairpin RNA (shRNA, 20 nM) plasmids are transfected with Lipofectamine® 2000 and selected with 500 ng/mL of puromycin for 10 days. […] Subsequently, 7×10^6 of hepatocellular carcinoma cells containing the pLKO/C1GALT1-shRNA plasmid and the non-targeting pLKO plasmid are subcutaneously injected into severe combined immunodeficient (SCID) mice (n=4 for each group). Tumor volumes are monitored for […]. Excised tumors are weighed and lysed for Western blotting and immunohistochemistry.
Equal amounts of protein samples are mixed with 5× sample buffer and boiled for 5 minutes, separated on SDS-polyacrylamide gels, and then transferred to PVDF membrane. The membranes are blocked in 5% BSA for 1 hour at room temperature, and incubated with primary antibodies overnight at 4° C. Anti-phosphotyrosine (4G10) antibody (Millipore, Billerica, Mass.), antibodies against C1GALT1, GAPDH, IGF-IR, MET pY 1234/5, IGF-IR pY1135/1136, p-AKT, p-ERK1/2, and ERK1/2 antibody (BD Pharmingen, San Jose, Calif.) are used. The blots are then incubated with secondary antibody conjugated with horseradish peroxidase and immunoreacted bands are detected by ECL reagents and exposed on x-ray film.
Total RNA is isolated using TRIzol reagent (Invitrogen) according to the manufacturer's protocol. Two micrograms of total RNA is used in reverse transcription reaction using the Superscript III First-Strand cDNA Synthesis Kit (Invitrogen). The cDNA is subjected to quantitative real-time RT-PCR (Q-PCR). Quantitative PCR System Mx3000P (Stratagene, La Jolla, Calif.) is used for quantitative real-time RT-PCR. Reactions are performed in a 20 μl volume with 2 μl cDNA, 400 nM of sense and anti-sense primers, and 10 μl Brilliant®SYBR®Green Q-PCR Master Mix (Stratagene). Primer sets are designed as the following: Primers for C1GALT1 are 5′-[…]-3′ (SEQ ID NO: 5) and 5′-[…]-3′(SEQ ID NO: 6). Primers for GAPDH are 5 ‘-[…]-3’ (SEQ ID NO: 8) and 5′-[…]-3′ (SEQ ID NO: 7). The relative quantity of gene expression normalized to GAPDH is analyzed using MxPro Software (Stratagene). […]

Regarding “C1GALT1 si-1: siRNA oligonucleotide against C1GALT1, presumably SEQ ID NO: 1, UUAGUAUACGUUCAGGUAAGGUAGG (chemistry not given here)”, the “VVA binding to MET” value in the series with MET (HA22T cells) and in the series on MET (PLC5 cells) was “increased” in each case. For the same substance, the C1GALT1 expression entry in the series with C1GALT1 (HA22T cells) and with C1GALT1 (PLC5 cells) was “knockdown of C1GALT1” each time.
For the substance “C1GALT1 si-2: siRNA oligonucleotide against C1GALT1, presumably SEQ ID NO: 2, UUAUGUUGGCUAGAAUCUGCAUUGA (chemistry not given here)”, the C1GALT1 expression result with C1GALT1 (HA22T cells) and with C1GALT1 (PLC5 cells) was “knockdown of C1GALT1” throughout.
